According to patent US8263606B2 (Xenon Pharmaceuticals Inc., priority 2008, dated 2012):
Structures can show the parent of a compound that is named as a salt.

Tests used:
CYP3A4 = CYP3A4 (Homo sapiens, UniProt P08684); test: Cytochrome P450 (CYP450) Inhibition Assay, CYP3A4 (Vivid fluorescence, BOMCC substrate); conditions: human, P450 Baculosomes (recombinant CYP3A4), probe BOMCC (Vivid substrate)
sodium channel = test: Guanidine influx assay (14C-guanidine radiotracer flux, in vitro); type: cell-based, human or rat; conditions: guanidine influx assay using a known cell line that expresses a sodium channel
How it was run: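 IC50 derives from a four-parameter logistic fit of 14C-guanidine uptake, test agent serially half-diluted around a 1 μM midpoint. Flux was driven by aconitine in low-sodium HEPES/choline saline at ambient temperature, using endogenous or recombinant human or rat sodium-channel cell lines plated ~100,000/well for 20–24 h.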

CYP3A4, sequence (P08684 whole entry): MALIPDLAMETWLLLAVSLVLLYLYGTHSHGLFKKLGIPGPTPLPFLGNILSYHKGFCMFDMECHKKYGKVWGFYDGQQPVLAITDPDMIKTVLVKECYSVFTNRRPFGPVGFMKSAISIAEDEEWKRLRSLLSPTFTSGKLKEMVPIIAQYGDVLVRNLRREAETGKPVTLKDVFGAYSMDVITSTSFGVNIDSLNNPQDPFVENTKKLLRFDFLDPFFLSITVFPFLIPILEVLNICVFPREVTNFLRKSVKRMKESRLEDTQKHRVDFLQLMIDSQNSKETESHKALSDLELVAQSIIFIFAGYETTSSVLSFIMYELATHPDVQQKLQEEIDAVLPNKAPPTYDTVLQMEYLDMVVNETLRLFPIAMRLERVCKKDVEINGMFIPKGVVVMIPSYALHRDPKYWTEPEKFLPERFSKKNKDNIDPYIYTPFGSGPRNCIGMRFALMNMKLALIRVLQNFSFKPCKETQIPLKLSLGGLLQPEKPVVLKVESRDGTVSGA

Compound	melting point	inhibition at 10 µM (CYP3A4)	IC50 (sodium channel)	IC50 (sodium channel; activity level class)
CN1C(=O)C2(COc3cc4c(cc32)OCCO4)c2c(C(=O)NC3CC3)cccc21 (stereo not shown) [Example 16.40, N-cyclopropyl-1′-methyl-2′-oxo-1′,2,2′,3-tetrahydrospiro[furo[2,3-g][1,4]benzodioxine-8,3′-indole]-4′-carboxamide]	127 to 128 °C	–	–	–
COc1cc2c(cc1C)[C@@]1(CO2)C(=O)N(CN2CCN(C)CC2)c2ccccc21 (as salt: chloride) [Example 11.64, (3S)-6-methoxy-5-methyl-1′-[(4-methylpiperazin-1-yl)methyl]spiro[1-benzofuran-3,3′-indol]-2′(1′H)-one hydrogen chloride]	> 200 °C (dec.)	–	–	–
Cc1ccc(F)c2c1N(C(c1ccccc1)c1ccccc1)C(=O)C21COc2cc3c(cc21)CCO3 (stereo not shown) [Example 2.19, 1′-(diphenylmethyl)-4′-fluoro-7′-methyl-5,6-dihydrospiro[benzo[1,2-b:5,4-b′]difuran-3,3′-indol]-2′(1′H)-one]	81 to 82 °C	–	–	–
O=C1N(Cc2ccc(N[C@@H]3CCNC3)cc2)c2ccccc2C12COc1cc(F)c(F)cc12 (stereo partly drawn) (as salt: hydrochloride) [Example 33.2, 5,6-difluoro-1′-{4-[(3R)-pyrrolidin-3-ylamino]benzyl}spiro[1-benzofuran-3,3′-indol]-2′(1′H)-one hydrochloride]	153 to 162 °C	–	–	–
CCN1CCC(CN2C(=O)C3(COc4cc5c(cc43)CCO5)c3ccccc32)CC1.Cl (stereo not shown)	135 °C (dec.)	–	–	–
Cc1ccc2c(c1)C1(COc3cc4c(cc31)OCCO4)C(=O)N2Cc1ncccc1C(F)(F)F (stereo not shown) [Example 4.115, 5′-methyl-1′-{[3-(trifluoromethyl)pyridin-2-yl]methyl}-2,3-dihydrospiro[furo[2,3-g][1,4]benzodioxine-8,3′-indol]-2′(1′H)-one]	137 to 139 °C	–	–	–
O=C1N(C(c2ccccc2)c2ccccc2)c2c(F)cccc2C12COc1cc3c(cc12)CCO3 (stereo not shown) [Example 2.20, 1′-(diphenylmethyl)-7′-fluoro-5,6-dihydrospiro[benzo[1,2-b:5,4-b′]difuran-3,3′-indol]-2′(1′H)-one]	183 to 184 °C	–	–	–
COc1cc2c(cc1C)[C@]1(CO2)C(=O)N(CN2CCN(C)CC2)c2ccccc21 (as salt: chloride) [Example 11.65, (3R)-6-methoxy-5-methyl-1′-[(4-methylpiperazin-1-yl)methyl]spiro[1-benzofuran-3,3′-indol]-2′(1′H)-one hydrogen chloride]	> 200 °C (dec.)	–	–	–
C[n+]1c(Cl)c[nH]c1CN1C(=O)C2(COc3cc4c(cc32)OCCO4)c2ccccc21 (stereo not shown) [Example 4.39, 1′-[(5-chloro-1-methyl-1H-imidazol-2-yl)methyl]-2,3-dihydrospiro[furo[2,3-g][1,4]benzodioxine-8,3′-indol]-2′(1′H)-one]	91 to 95 °C	–	–	–
O=C1N(C(c2ccccc2)c2ccccc2)c2ccccc2C12COc1cc3c(cc12)OCCCO3 (stereo not shown) [Example 2.13, 1′-(diphenylmethyl)-3,4-dihydro-2H-spiro[furo[2,3-h][1,5]benzodioxepine-9,3′-indol]-2′(1′H)-one]	165 to 168 °C	–	–	–
CNC(=O)c1cccc2c1C1(COc3cc4c(cc31)OCCO4)C(=O)N2C (stereo not shown) [Example 16.76, N,1′-dimethyl-2′-oxo-1′,2,2′,3-tetrahydrospiro[furo[2,3-g][1,4]benzodioxine-8,3′-indole]-4′-carboxamide]	120 to 122 °C	–	–	–
COCCOCCN1C(=O)C2(COc3cc4onc(C)c4cc32)c2ccccc21 (stereo not shown) [Example 9.54, 1′-[2-(2-methoxyethoxy)ethyl]-3-methylspiro[furo[3,2-f][1,2]benzisoxazole-5,3′-indol]-2′(1′H)-one]	–	< 50%	100 to 1000 nM	–
COc1cc2c(cc1C)C1(CO2)C(=O)N(Cc2ccccn2)c2ccccc21 (stereo not shown) [Example 4.62, 6-methoxy-5-methyl-1′-(pyridin-2-ylmethyl)spiro[1-benzofuran-3,3′-indol]-2′(1′H)-one]	–	> 50%	–	1000 to 10000 nM
NC(=O)CN1C(=O)C2(COc3cc4c(cc32)CCO4)c2ccccc21 (stereo not shown) [Example 12.46, 2-(2′-oxo-5,6-dihydrospiro[benzo[1,2-b:5,4-b′]difuran-3,3′-indol]-1′(2′H)-yl)acetamide]	–	< 50%	1000 to 10000 nM	–
O=C(O)c1ccc(CN2C(=O)C3(COc4cc5c(cc43)CCO5)c3ccccc32)cc1 (stereo not shown) [Example 11.31, 4-[(2′-oxo-5,6-dihydrospiro[benzo[1,2-b:5,4-b′]difuran-3,3′-indol]-1′(2′H)-yl)methyl]benzoic acid]	–	< 50%	100 to 1000 nM	–
O=C1N(Cc2ccc(F)cc2Cl)c2ccccc2C12COc1cc3c(cc12)OCCO3 (stereo not shown) [Example 7.22, 1′-(2-chloro-4-fluorobenzyl)-2,3-dihydrospiro[furo[2,3-g][1,4]benzodioxine-8,3′-indol]-2′(1′H)-one]	–	< 50%	–	1 to 100 nM
COc1ccc(CCNC(=O)c2ccccc2CN2C(=O)C3(COc4cc5c(cc43)CCO5)c3ccccc32)cc1 (stereo not shown) [Example 12.22, N-[2-(4-methoxyphenyl)ethyl]-2-[(2′-oxo-5,6-dihydrospiro[benzo[1,2-b:5,4-b′]difuran-3,3′-indol]-1′(2′H)-yl)methyl]benzamide]	–	> 50%	1000 to 10000 nM	–
O=C1Nc2ccccc2C12COc1ccc(F)cc12 (stereo not shown) [Example 3.8, 5-fluoro-spiro[1-benzofuran-3,3′-indol]-2′(1′H)-one]	–	> 50%	–	1000 to 10000 nM
C[C@@H](NC(=O)c1cccc(CN2C(=O)C3(COc4cc5c(cc43)CCO5)c3ccccc32)c1)C1CCCCC1 (stereo partly drawn) [Example 12.7, N-[(1R)-1-cyclohexylethyl]-3-[(2′-oxo-5,6-dihydrospiro[benzo[1,2-b:5,4-b′]difuran-3,3′-indol]-1′(2′H)-yl)methyl]benzamide]	–	> 50%	1000 to 10000 nM	–
O=C1N(C[C@H]2CCCO2)c2ccccc2C12COc1cc3c(cc12)COCO3 (stereo partly drawn) [Example 2.31, 1′-[(2R)-tetrahydrofuran-2-ylmethyl]-4H-spiro[furo[3,2-g][1,3]benzodioxine-6,3′-indol]-2′(1′H)-one]	–	> 50%	–	1000 to 10000 nM
CNC(=O)c1ccc(CN2C(=O)C3(COc4cc5c(cc43)CCO5)c3ccccc32)cc1 (stereo not shown) [Example 12.28, N-methyl-4-[(2′-oxo-5,6-dihydrospiro[benzo[1,2-b:5,4-b′]difuran-3,3′-indol]-1′(2′H)-yl)methyl]benzamide]	–	> 50%	100 to 1000 nM	–
O=C1N(Cc2ccc(-c3ccccc3F)cc2)c2ccccc2C12COc1cc3c(cc12)CCO3 (stereo not shown) [Example 11.17, 1′-[(2′-fluorobiphenyl-4-yl)methyl]-5,6-dihydrospiro[benzo[1,2-b:5,4-b′]difuran-3,3′-indol]-2′(1′H)-one]	–	< 50%	100 to 1000 nM	–
O=C1N(Cc2cncc(F)c2)c2ccccc2C12COc1cc3c(cc12)OCCO3 (stereo not shown) [Example 8.18, 1′-[(5-fluoropyridin-3-yl)methyl]-2,3-dihydrospiro[furo[2,3-g][1,4]benzodioxine-8,3′-indol]-2′(1′H)-one]	–	> 50%	–	1 to 100 nM
O=C1N(Cc2cc(F)cc(F)c2)c2ccccc2C12COc1cc3c(cc12)OCCO3 (stereo not shown) [Example 7.20, 1′-(3,5-difluorobenzyl)-2,3-dihydrospiro[furo[2,3-g][1,4]benzodioxine-8,3′-indol]-2′(1′H)-one]	–	> 50%	–	1 to 100 nM
